Patent publication US9598434B2, “Benzazepine compound” (Astellas Pharma Inc., priority 2010, dated 2017)
Read-outs that look alike come from different tables or passages of the source.

Tests used:
[1] = system: Hartley female guinea pigs; test: Measurement of external urethral sphincter electromyography; assay type: in vivo, guinea pig; conditions: Cavia porcellus, read-out: external urethral sphincter electromyography activity
Source text: The activating action of the compound of the formula (I) on the urethral sphincter electromyography was confirmed with the method shown below.
Hartley female guinea pigs with a body weight of 250 to 350 g were anesthetized with urethane (Sigma). The guinea pigs were fixed in a supine position and catheters (PE-50; Clay Adams) for administration of test compounds were inserted into the jugular vein. Further, a catheters (PE-160; Clay Adams), for an infusion of physiological saline into bladder and measurement of the intravesical pressure, were inserted through an incision into the dome of the bladder. Further, in order to measure the external urethral sphincter electromyography, two electrodes were inserted into both the left and right sides of the urethral opening to the urethral sphincter. The electrodes for measuring base voltages were placed under the skin of the hind part. The bladder catheter was branched over a three-way stopcock, and one was connected with a 50 mL syringe (Terumo) fixed to an infusion pump (Terumo). The other was connected to a pressure transducer (DX-100; Nihon Kohden Corporation) to transfer the signal of the transducer through an amplifier (AP-630G; Nihon Kohden Corporation) and a data acquisition system (PowerLab; AD Instruments) to a computer and record on a hard disk. The electrodes for electromyography measurement were connected to a control unit (JB-101J; Nihon Kohden Corporation) to transfer the signal through an amplifier (AP-651J; Nihon Kohden Corporation) and a data acquisition system (PowerLab; AD Instruments) to a computer and record on a hard disk. Further, the data were analyzed on the computer using a software (Chart; AD Instruments). […] The electromyography activity was analyzed by taking the lowest potential amplitude as a standard during the stabilization period and using the firing frequency over the standard amplitude as an indicator. At internals between the respective urinations (urine filling phase), the activity of the urethral sphincter electromyography was analyzed and its average value was calculated. After the stabilization period, the solvent and the test compound were administered at an increased dose at an interval of 40 minutes through the catheter placed into the jugular vein. The urethral sphincter electromyography activity after the administration of the solvent was taken as 100% and the urethral sphincter electromyography activity after the administration of the test compound was denoted as a percentage (%) of the electromyography activity after the administration of the solvent.

human 5-HT2C receptor = biological target: T1, human 5-HT2C receptor (Homo sapiens, UniProt P28335); test: Evaluation of 5-HT2C receptor agonist activity (intracellular calcium increase, FLIPR, CHO cells stably expressing the receptor); assay type: cell-based; conditions: for Emax: CHO, read-out: 5-HT2C agonist activity Emax
T1 construct: expressed in transfected cells
T1 sequence (P28335 33-458): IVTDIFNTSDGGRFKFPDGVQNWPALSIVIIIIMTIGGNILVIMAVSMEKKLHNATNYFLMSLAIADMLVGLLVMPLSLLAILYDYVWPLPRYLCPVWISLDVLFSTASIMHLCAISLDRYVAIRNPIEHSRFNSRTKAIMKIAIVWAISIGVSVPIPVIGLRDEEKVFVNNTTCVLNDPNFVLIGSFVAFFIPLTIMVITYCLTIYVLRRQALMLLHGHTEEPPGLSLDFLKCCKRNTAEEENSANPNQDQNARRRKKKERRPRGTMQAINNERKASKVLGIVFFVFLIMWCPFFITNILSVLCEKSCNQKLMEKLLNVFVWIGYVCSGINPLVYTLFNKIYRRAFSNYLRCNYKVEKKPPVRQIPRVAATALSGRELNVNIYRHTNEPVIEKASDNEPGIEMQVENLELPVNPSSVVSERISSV
Method: The agonist activity of the compound of the formula (I) on the 5-HT2C receptor was confirmed by the method shown below.
The human 5-HT2C receptor agonist activity was evaluated by measuring the increase of the ligand-dependent intracellular calcium concentration. CHO cells which stably expressing a human 5-HT2C receptor were used. The receptor-expressing cells were prepared by transfecting the genes of the human 5-HT2C receptor (Accession numbers: AF498983 (5-HT2C)) into CHO cells (dihydrofolic acid-deficient strain, DS Pharma Biomedical Co., Ltd.)) using a pEF-BOS vector (Nucleic Acids Research, vol. 18, No. 17). After transcription, the 5-HT2C is known to be subjected to RNA editing to cause differences in three kinds of amino acids, resulting in fourteen receptor isoforms. Among them, cells stably expressing an INI type of 5-HT2C receptor which had not been subjected to editing were used. Cells used for evaluation were cultured in a 10% fetal bovine serum (FBS)-containing medium (trade name: α-MEM, Invitrogen) at 37° C. and 5% carbon dioxide. On the day before the evaluation, the cells were suspended in a serum-free medium (trade name: CD-CHO, Invitrogen) containing 8 mM L-glutamine (trade name: L-glutamine 200 mM, Invitrogen, added to the medium at a final concentration of 8 mM) and dispensed into a 96-well poly-D-lysine-coated plate (trade name: Biocoat PDL96W Black/Clear, Japan Becton, Dickinson and Company)) at 4×10^4 cells/well and cultured at 37° C. and 5% carbon dioxide overnight. A solution including a washing solution (mixture of Hank's Balanced Salt Solution (HBSS)-sodium hydroxide (NaOH), 20 mM 2-[4-(2-hydroxyethyl)-1-piperazinyl]ethanesulfonic acid (HEPES)-sodium hydroxide (NaOH), 2.5 mM probenecid, and 0.1% bovine serum albumin (BSA)), and a 4 μM fluorescent reagent (trade name: Fluo4-AM, Dojindo Co., Ltd.) was used as a loading buffer and the medium of the 96-well plate which had been cultured overnight was replaced with a loading buffer. After leaving to stand (with light-shielding) at room temperature for 3 hours, the cells were washed with a plate washer (trade name: ELx405, BioTek Instruments, Inc.) in which a washing solution had been set up. The plates of the washed cells were set up in a system for measuring a calcium (Ca) concentration in a cell (trade name: FLIPR, Molecular Devices, Inc.). In this device, a test compound that had been dissolved in dimethyl sulfoxide and diluted in the washing solution at a predetermined concentration was added and set up to measure a change in the Ca concentrations in a cell. The difference between a maximum value and a minimum value in the change of the intracellular Ca concentration was determined and kept as measurement data.
Taking the maximum reaction of the 5-HT (agonist action with addition of 5-HT 10 μM) as 100% and the reaction of a solvent alone as 0%, the efficacy (Emax (%)) and potency (EC50 (nM)) of the present invention compound to the maximum reaction of the 5-HT were calculated with a logistic regression method.

[2] = intravenous administration at 3 mg/kg, urethane-anesthetized guinea pigs, activity after solvent taken as 100%
[3] = CHO cells stably expressing INI type human 5-HT2C receptor, intracellular Ca increase, logistic regression, read-out: 5-HT2C agonist activity EC50

Structure (SMILES)	response vs control in vivo at 3 mg/kg [1, 2]	EC50 (human 5-HT2C receptor; [3])	Emax (human 5-HT2C receptor)	melting point	response vs control in vivo at 3 mg/kg ([1]; iv)	EC50 (human 5-HT2C receptor)
O=C(O)/C=C/C(=O)O.c1cc2c(cc1CN1CCOc3cc4c(c(C5CC5)c31)CCNCC4)OCCO2 [Example 291]	≥ 200%	1.2 nM	93%	165 to 168 °C	–	–
CCOCCN1CCOc2cc3c(c(C4CC4)c21)CCNCC3.O=C(O)/C=C/C(=O)O [Example 104]	≥ 200%	1.1 nM	107%	140 to 145 °C	–	–
Fc1ccc(Cl)cc1CN1CCOc2cc3c(c(C4CC4)c21)CCNCC3.O=C(O)/C=C/C(=O)O [Example 290]	≥ 200%	3.8 nM	93%	165 to 168 °C	–	–
COCc1cccc(CN2CCOc3cc4c(c(C5CC5)c32)CCNCC4)c1.O=C(O)/C=C/C(=O)O [Example 288]	≥ 200%	0.64 nM	90%	190 to 193 °C	–	–
c1c2c(c(C3CC3)c3c1OCCN3C[C@@H]1CCCO1)CCNCC2 [Example 215]	–	1 nM	96%	154 to 156 °C	≥ 200%	–
COCCCN1CCOc2cc3c(c(C4CC4)c21)CCNCC3.O=C(O)/C=C/C(=O)O [Example 106]	≥ 200%	1.1 nM	112%	169 to 171 °C	–	–
Cc1cccc(CN2CCOc3cc4c(c(C5CC5)c32)CCNCC4)c1.O=C(O)/C=C/C(=O)O [Example 277]	≥ 200%	2.3 nM	95%	192 to 195 °C	–	–
O=C(O)/C=C/C(=O)O.c1ccc2c(c1)OCC(CN1CCOc3cc4c(c(C5CC5)c31)CCNCC4)O2 (centres unmarked) [Example 267]	≥ 200%	0.51 nM	99%	179 to 182 °C	–	–
Fc1cc(F)cc(CN2CCOc3cc4c(c(C5CC5)c32)CCNCC4)c1.O=C(O)/C=C/C(=O)O [Example 313]	≥ 200%	4.2 nM	97%	191 to 194 °C	–	–
Cc1ccccc1CN1CCOc2cc3c(c(C4CC4)c21)CCNCC3.O=C(O)/C=C/C(=O)O [Example 276]	≥ 200%	6.4 nM	104%	163 to 166 °C	–	–
CCO[C@H](C)CN1CCOc2cc3c(c(C4CC4)c21)CCNCC3.O=C(O)/C=C/C(=O)O [Example 315]	≥ 200%	2.8 nM	108%	157 to 160 °C	–	–
FCCCN1CCOc2cc3c(c(C4CC4)c21)CCNCC3.O=C(O)/C=C/C(=O)O [Example 141]	–	–	100%	144 to 147 °C	≥ 200%	0.36 nM
COCCCN1CCOc2cc3c(cc21)CCNCC3.O=C(O)/C=C/C(=O)O [Example 59]	≥ 200%	7.1 nM	108%	141 to 145 °C	–	–
Clc1cccc(CN2CCOc3cc4c(c(C5CC5)c32)CCNCC4)c1.O=C(O)CCC(=O)O [Example 258]	≥ 200%	1.9 nM	97%	139 to 141 °C	–	–
CO[C@H](C)CN1CCOc2cc3c(c(C4CC4)c21)CCNCC3.O=C(O)/C=C/C(=O)O [Example 243]	≥ 200%	0.53 nM	96%	133 to 136 °C	–	–
O=C(O)/C=C/C(=O)O.c1c2c(c(C3CC3)c3c1OCCN3CC1CCCOC1)CCNCC2 (centres unmarked) [Example 263]	≥ 200%	2.8 nM	96%	186 to 189 °C	–	–
c1ccc(OCCN2CCOc3cc4c(c(C5CC5)c32)CCNCC4)cc1 [Example 268]	≥ 200%	0.92 nM	99%	–	–	–
COc1cccc(CN2CCOc3cc4c(c(C5CC5)c32)CCNCC4)c1 [Example 299]	≥ 200%	1 nM	98%	–	–	–
Fc1ccccc1CN1CCOc2cc3c(c(C4CC4)c21)CCNCC3.O=C(O)/C=C/C(=O)O [Example 265]	≥ 200%	1.3 nM	97%	133 to 136 °C	–	–
COCCN1CCOc2cc3c(c(C4CC4)c21)CCNCC3 [Example 88]	≥ 200%	1.1 nM	105%	–	–	–
